Laboratory results reported in patent publication US8685947B2, “Compositions and methods for loop diuretics with consistent bioavailability” (Brown University, priority 2010, dated 2014).

Test system: albino, male, Sprague-Dawley subjects
Assay: Diuretic bioactivity analysis: urine output in metabolic cages after oral gelatin capsule dosing
Assay type: in vivo, rats
Details: 10 mg/kg oral
Protocol: Subject rats were weighed at the start of each example. Each formulation was prepared and then loaded into size 9 gelatin capsules using a gelatin capsule filler (Torpac, Fairfield, N.J.). Each gelatin capsule was weighed on a microbalance (AD-4 Autobalance, Perkin Elmer, Waltham, Mass.) prior to and after drug loading to prepare oral doses of 2.5 mg, 5 mg, or 10 mg of drug per kg of body mass within 0.5 mg of dose mass.
Each subject was anesthetized in an induction chamber with 3.5% isoflurane (Novation, Irving, Tex.) for 5-10 minutes. Once anesthetized, the subject was removed from the induction chamber and dosed with a size 9 gelatin capsule containing one of the furosemide formulations using the gelatin capsule dosing syringe (Torpac, Fairfield, N.J.). As a negative control the same subjects were administered empty gelatin capsules without furosemide to quantify the basal urine mass output for comparison. Upon recovery from anesthesia, each subject was then transferred to a metabolic cage for urine collection over a 10 hour period.
Twelve albino, male, Sprague-Dawley subjects (450 g to 750 g) were used as subjects in the bioactivity analysis example. Subjects were housed in standard bedded cages in accordance with NIH and IACUC guidelines. Immediately after oral gavage with a furosemide formulation, subjects were housed individually in a metabolic cage rack (Unifab Cages, Kalamazoo, Mich.) as shown in FIG. 2. Subjects were given access to food and water ad libitum throughout the study. Metabolic cages were equipped with wire grating floors that allowed for free passage and collection of excreted material during the period of containing the subject. Feces were collected beneath the large opening wire grating floor by smaller opening wire mesh screen, and urine continued through the screen into a funnel for collection into pre-weighed glass scintillation vials (Cole-Parmer, Vernon Hills, Ill.). At two hour intervals after dosing, the glass scintillation vials were weighed (Mettler Toledo, Columbus, Ohio) to quantify urine output as a function of time and were then replaced. Increased urine output above baseline values was used as a non-invasive measure of diuretic activity of the various furosemide formulations examined. After each 10 hour study, subjects were housed in bedded cages for a recovery period of at least 48 hours between metabolic cage studies.
Each dose was administered to three subjects and the average urine mass produced in the two hour time periods was determined and was compared to the average output of the same subjects that received a sham dosage without any furosemide, referred to in the figures as the basal output.

NS(=O)(=O)c1cc(C(=O)O)c(NCc2ccco2)cc1Cl [stock furosemide, Furosemide]
total urine output at hour 10 relative to the micronized dose (N=3, not significantly different): 1.02 fold
mean urine mass output two hours after dosing relative to basal urine output (N=3, p<0.01): 12.2 fold
mean urine mass output two hours after dosing relative to equivalent dose of micronized furosemide (N=3, p<0.01): 8.6 fold
urine output two hours after oral dosing compared to micronized furosemide and basal control (N=3, p<0.01): statistically significant greater urine output
